According to US20240226228A1, “ANTIMICROBIAL PEPTOID HAVING IMPROVED SELECTIVITY AND ANTIMICROBIAL COMPOSITION COMPRISING SAME” (priority 2021, published 2024):
≈ marks a conversion by molar mass, not a printed value. Where a SMILES comes first, the peptide text is derived from it. [ ]: non-standard residue; d: D form. Gly(N(CH2)2(3-indolyl)) = O=C(O)CNCCc1c[nH]c2ccccc12; Gly(N-CH2CH2-imidazol-4-yl) = O=C(O)CNCCc1c[nH]cn1; Nspe = C[C@H](NCC(=O)O)c1ccccc1; Nlys = NCCCCNCC(=O)O

Key:
E. coli ATCC25922 = details: for antimicrobial activity against E. coli (in words): compared to Peptoid 1; for antimicrobial activity (in words): E. coli and S. aureus, compared to Peptoid 1, parent peptoid or TFA salt as stated
Description: To measure the antimicrobial activity of the peptoids synthesized in Example 1, an E. coli ATCC25922 strain as gram-negative bacteria and an S. aureus KCTC25923 strain as gram-positive bacteris, were treated with the peptoids, followed by measuring the minimum inhibitory concentration (MIC). Peptoids 1 and 2 are antimicrobial peptoids known in the art, and used as controls for comparing antimicrobial activity with a novel peptoid.
Specifically, the S. aureus KCTC25923 or E. coli ATCC25922 strain was inoculated into a Mueller Hinton Broth (MHB2) liquid medium in which cations had been adjusted in the medium, cultured at 37° C. for 18 hours, subcultured, and then incubated for 4 hours. Afterward, for each bacterial strain, an optical density (OD, 0.001) was adjusted so that the bacterial count became 2×10^5 to 5×10^5 colony-forming units (CFU) per mL, which was then diluted with a MHB2 liquid medium containing 0.02% bovine serum albumin and 0.001% acetic acid, and dispensed at 100 μL into a 96-well microplate. Using sterile water, a peptoid stock 40 times stronger than a concentration to be tested was subjected to two-fold serial dilution and assessed at six different concentrations, and the maximum value of the peptoid concentrations was 25 μM. Subsequently, the plate was incubated at 37° C. for 24 hours. Afterward, optical density (OD) values at 600 nm were measured using a microplate reader (Bio-Rad).
Each MIC value was determined as the average value of a value obtained through three independent experiments.
Referring to Table 22, to measure the antimicrobial activity of the peptoids synthesized in Example 3, an MIC was measured by treating gram-negative bacteria, that is, the E. coli ATCC25922 strain, and gram-positive bacteria, that is, the S. aureus ATCC25923 strain, with the peptoids. Here, Peptoid 1 is a conventionally known antimicrobial peptoid, and Omiganan is a derivative of indolicidin, which is an antimicrobial peptide, under clinical development, and was used as a control for comparing antimicrobial activity with the novel peptoid.

red blood cells = experiment: Hemolysis assay; type: cell-based, Sprague-Dawley mouse
Description: To confirm cytotoxicity by the hemolytic activity of each peptoid synthesized in Example 1, hemolysis analysis was performed. The used blood was collected from a 13-week-old male Sprague-Dawley […] in a tube containing 158 UPS sodium heparin for preventing coagulation, and centrifuged at 4° C. for 10 minutes at 1,000 rpm. Afterward, the plasma was carefully removed, red blood cells were washed with phosphate-buffered saline (PBS: a mixed solution of 35 mM phosphate-buffered solution/150 mM NaCl, pH 7.4) three times and centrifuged at 1,000 rpm for 10 minutes. A 10% (v/v) red blood cell solution diluted in PBS was dispensed at 150 μL into a 96-well plate (microtiter plate), a peptoid solution was added at 50 μL, and 1% Triton X-100 was added. Afterward, the red blood cells were incubated at 37° C. for 1 hour, and the incubated 96-well plate was centrifuged at 1,000 rpm for 15 minutes. A supernatant was obtained and transferred to a new 96-well plate at 150 μL, and absorbance was measured using a spectrophotometer at 540 nm. Percent hemolysis may be calculated by the following Equation 1, and the corresponding results are shown in Tables 11 to 13. % Hemolysis=(A−C)/(B−C)×100 [Equation 1] In Equation 1, A is the absorbance of the peptoid solution at 540 nm, B is the absorbance of the 0.1% Triton X-100 at 540 nm, and C is the absorbance of the PBS solution at 540 nm.

Row | SMILES | cytotoxicity against red blood cells / hemolysis (in words) (red blood cells) | antimicrobial activity (in words) (E. coli ATCC25922) | further results
1 | C[C@@H](c1ccccc1)N(CC(=O)N(CCCCN)CC(=O)N(CC(=O)N(CC(=O)N(CCCCN)CC(=O)N(CC(=O)N(CC(=O)N(CCCCN)CC(=O)N(CC(=O)N(CC(=O)N(CCc1c[nH]c2ccccc12)CC(N)=O)[C@@H](C)c1ccccc1)[C@@H](C)c1ccccc1)[C@@H](C)c1ccccc1)[C@@H](C)c1ccccc1)[C@@H](C)c1ccccc1)[C@@H](C)c1ccccc1)C(=O)CN(C(=O)CN(CCCCN)C(=O)CNCCc1c[nH]c2ccccc12)[C@@H](C)c1ccccc1 [Peptoid 5, H-NhTrp-NLys-Nspe-Nspe-NLys-Nspe-Nspe-NLys-Nspe-Nspe-NLys-Nspe-Nspe-NhTrp-NH2] (H-[Gly(N(CH2)2(3-indolyl))][Nlys][Nspe][Nspe][Nlys][Nspe][Nspe][Nlys][Nspe][Nspe][Nlys][Nspe][Nspe][Gly(N(CH2)2(3-indolyl))]-NH2) | – | – | antimicrobial activity against E. coli (in words) (E. coli ATCC25922): lost antimicrobial activities against E. coli
2 | C[C@@H](c1ccccc1)N(CC(N)=O)C(=O)CN(C(=O)CN(CCCCN)C(=O)CN(C(=O)CN(C(=O)CN(CCCCN)C(=O)CN(C(=O)CN(C(=O)CN(CCCCN)C(=O)CN(C(=O)CN(C(=O)CN(CCCCN)C(=O)CN(CCc1c[nH]c2ccccc12)C(=O)CNCCc1c[nH]c2ccccc12)[C@@H](C)c1ccccc1)[C@@H](C)c1ccccc1)[C@@H](C)c1ccccc1)[C@@H](C)c1ccccc1)[C@@H](C)c1ccccc1)[C@@H](C)c1ccccc1)[C@@H](C)c1ccccc1 [Peptoid 6, H-NhTrp-NhTrp-NLys-Nspe-Nspe-NLys-Nspe-Nspe-NLys-Nspe-Nspe-NLys-Nspe-Nspe-NH2] | – | – | antimicrobial activity against E. coli (in words) (E. coli ATCC25922): lost antimicrobial activities against E. coli
3 | C[C@@H](c1ccccc1)N(CC(=O)N(CCCCN)CC(=O)N(CC(=O)N(CC(=O)N(CCCCN)CC(=O)N(CCc1c[nH]c2ccccc12)CC(=O)N(CCc1c[nH]c2ccccc12)CC(=O)N(CCCCN)CC(=O)N(CCc1c[nH]c2ccccc12)CC(=O)N(CCc1c[nH]c2ccccc12)CC(N)=O)[C@@H](C)c1ccccc1)[C@@H](C)c1ccccc1)C(=O)CN(C(=O)CNCCCCN)[C@@H](C)c1ccccc1 [Peptoid 19] (H-[Nlys][Nspe][Nspe][Nlys][Nspe][Nspe][Nlys][Gly(N(CH2)2(3-indolyl))][Gly(N(CH2)2(3-indolyl))][Nlys][Gly(N(CH2)2(3-indolyl))][Gly(N(CH2)2(3-indolyl))]-NH2) | – | – | Hmax (100 μM) (red blood cells): 101.5 ± 1.3%; HC10 (red blood cells; Tables 11-13, concentration that induces hemolysis in 10% red blood cells): 3.8 µM; HC50 (red blood cells; Tables 11-13, concentration that induces hemolysis in 50% red blood cells): 12.5 µM; MIC E. coli ATCC25922 (E. coli ATCC25922; Tables 11-13, 24 hours at 37° C., maximum concentration 25 μM): 12.5 µM (≈ 24.7 µg/mL)
4 | C[C@@H](c1ccccc1)N(CC(N)=O)C(=O)CN(CCCCN)C(=O)CN(CCCCN)C(=O)CN(C(=O)CN(C(=O)CN(CCCCN)C(=O)CN(C(=O)CN(C(=O)CN(CCCCN)C(=O)CN(CCc1c[nH]c2ccccc12)C(=O)CN(CCc1c[nH]c2ccccc12)C(=O)CNCCc1c[nH]cn1)[C@@H](C)c1ccccc1)[C@@H](C)c1ccccc1)[C@@H](C)c1ccccc1)[C@@H](C)c1ccccc1 [Peptoid 72, H-NHis-NhTrp-NhTrp-NLys-Nspe-Nspe-NLys-Nspe-Nspe-NLys-NLys-Nspe-NH2] (H-[Gly(N-CH2CH2-imidazol-4-yl)][Gly(N(CH2)2(3-indolyl))][Gly(N(CH2)2(3-indolyl))][Nlys][Nspe][Nspe][Nlys][Nspe][Nspe][Nlys][Nlys][Nspe]-NH2) | improved in toxicity | retained antimicrobial activity | –
5 | C[C@@H](c1ccccc1)N(CC(N)=O)C(=O)CN(CCCCN)C(=O)CN(CCCCN)C(=O)CN(C(=O)CN(C(=O)CN(CCCCN)C(=O)CN(C(=O)CN(C(=O)CN(CCc1c[nH]cn1)C(=O)CN(CCc1c[nH]c2ccccc12)C(=O)CN(CCc1c[nH]c2ccccc12)C(=O)CNCCCCN)[C@@H](C)c1ccccc1)[C@@H](C)c1ccccc1)[C@@H](C)c1ccccc1)[C@@H](C)c1ccccc1 [Peptoid 73, H-NLys-NhTrp-NhTrp-NHis-Nspe-Nspe-NLys-Nspe-Nspe-NLys-NLys-Nspe-NH2] (H-[Nlys][Gly(N(CH2)2(3-indolyl))][Gly(N(CH2)2(3-indolyl))][Gly(N-CH2CH2-imidazol-4-yl)][Nspe][Nspe][Nlys][Nspe][Nspe][Nlys][Nlys][Nspe]-NH2) | improved in toxicity | retained antimicrobial activity | –
6 | C[C@@H](c1ccccc1)N(CC(N)=O)C(=O)CN(CCCCN)C(=O)CN(CCCCN)C(=O)CN(C(=O)CN(C(=O)CN(CCc1c[nH]cn1)C(=O)CN(C(=O)CN(C(=O)CN(CCCCN)C(=O)CN(CCc1c[nH]c2ccccc12)C(=O)CN(CCc1c[nH]c2ccccc12)C(=O)CNCCCCN)[C@@H](C)c1ccccc1)[C@@H](C)c1ccccc1)[C@@H](C)c1ccccc1)[C@@H](C)c1ccccc1 [Peptoid 74, H-NLys-NhTrp-NhTrp-NLys-Nspe-Nspe-NHis-Nspe-Nspe-NLys-NLys-Nspe-NH2] (H-[Nlys][Gly(N(CH2)2(3-indolyl))][Gly(N(CH2)2(3-indolyl))][Nlys][Nspe][Nspe][Gly(N-CH2CH2-imidazol-4-yl)][Nspe][Nspe][Nlys][Nlys][Nspe]-NH2) | improved in toxicity | retained antimicrobial activity | –
7 | C[C@@H](c1ccccc1)N(CC(N)=O)C(=O)CN(CCc1c[nH]cn1)C(=O)CN(CCCCN)C(=O)CN(C(=O)CN(C(=O)CN(CCCCN)C(=O)CN(C(=O)CN(C(=O)CN(CCCCN)C(=O)CN(CCc1c[nH]c2ccccc12)C(=O)CN(CCc1c[nH]c2ccccc12)C(=O)CNCCCCN)[C@@H](C)c1ccccc1)[C@@H](C)c1ccccc1)[C@@H](C)c1ccccc1)[C@@H](C)c1ccccc1 [Peptoid 76, H-NLys-NhTrp-NhTrp-NLys-Nspe-Nspe-NLys-Nspe-Nspe-NLys-NHis-Nspe-NH2] (H-[Nlys][Gly(N(CH2)2(3-indolyl))][Gly(N(CH2)2(3-indolyl))][Nlys][Nspe][Nspe][Nlys][Nspe][Nspe][Nlys][Gly(N-CH2CH2-imidazol-4-yl)][Nspe]-NH2) | improved in toxicity | retained antimicrobial activity | –
8 | C[C@@H](c1ccccc1)N(CC(=O)N(CCc1c[nH]cn1)CC(=O)N(CCc1c[nH]c2ccccc12)CC(=O)N(CCc1c[nH]c2ccccc12)CC(N)=O)C(=O)CN(CCCCN)C(=O)CN(CCCCN)C(=O)CN(C(=O)CN(C(=O)CN(CCCCN)C(=O)CN(C(=O)CN(C(=O)CNCCCCN)[C@@H](C)c1ccccc1)[C@@H](C)c1ccccc1)[C@@H](C)c1ccccc1)[C@@H](C)c1ccccc1 [Peptoid 77, H-NLys-Nspe-Nspe-NLys-Nspe-Nspe-NLys-NLys-Nspe-NHis-NhTrp-NhTrp-NH2] (H-[Nlys][Nspe][Nspe][Nlys][Nspe][Nspe][Nlys][Nlys][Nspe][Gly(N-CH2CH2-imidazol-4-yl)][Gly(N(CH2)2(3-indolyl))][Gly(N(CH2)2(3-indolyl))]-NH2) | improved toxicity | reduced antimicrobial activity | –
9 | C[C@@H](c1ccccc1)N(CC(=O)N(CCCCN)CC(=O)N(CCc1c[nH]c2ccccc12)CC(=O)N(CCc1c[nH]c2ccccc12)CC(N)=O)C(=O)CN(CCc1c[nH]cn1)C(=O)CN(CCCCN)C(=O)CN(C(=O)CN(C(=O)CN(CCCCN)C(=O)CN(C(=O)CN(C(=O)CNCCCCN)[C@@H](C)c1ccccc1)[C@@H](C)c1ccccc1)[C@@H](C)c1ccccc1)[C@@H](C)c1ccccc1 [Peptoid 78, H-NLys-Nspe-Nspe-NLys-Nspe-Nspe-NLys-NHis-Nspe-NLys-NhTrp-NhTrp-NH2] (H-[Nlys][Nspe][Nspe][Nlys][Nspe][Nspe][Nlys][Gly(N-CH2CH2-imidazol-4-yl)][Nspe][Nlys][Gly(N(CH2)2(3-indolyl))][Gly(N(CH2)2(3-indolyl))]-NH2) | improved in toxicity | retained antimicrobial activity | –
